ChEMBL document CHEMBL5260832, “Hepatoprotective natural triterpenoids” (Eur J Med Chem, 2018)

Legend:
Huh-7 [1] = assay: Hepatoprotective activity in human Huh-7 cells assessed as reduction in AST level; assay type: functional; set-up: scale not given: the % may be the effect or the level left
Huh-7 [2] = assay: Hepatoprotective activity in human Huh-7 cells assessed as reduction in ALT level; assay type: functional; set-up: scale not given: the % may be the effect or the level left
Huh-7 [3] = assay: Hepatoprotective activity in human Huh-7 cells assessed as increasing in GSH level; assay type: functional
Mus musculus [4] = species on record: Mus musculus; assay: Hepatoprotective activity in mouse model of CCl4-induced liver injury assessed as reduction in AST level at 100 microg/ml (reference value: 5.9 U/mL); assay type: functional; settings: dose 100 µg/ml
[5] = Hepatotoxicity in GaIN-induced rat model of liver injury assessed as reduction in ALT level at 4 mg/kg relative to control; assay type: toxicity, organism-based; set-up: scale not given: the % may be the effect or the level left; settings: in vivo
Mus musculus [6] = assay: Hepatoprotective activity against CCl4-induced mouse chronic liver injury model assessed as decreased sGPT level at 15 mg/kg, ip relative to control; assay type: functional; set-up: scale not given: the % may be the effect or the level left
Mus musculus [7] = assay: Hepatoprotective activity against CCl4-induced mouse chronic liver injury model assessed as decreased LDH level at 15 mg/kg, ip relative to control; assay type: functional; set-up: scale not given: the % may be the effect or the level left
Mus musculus [8] = assay: Hepatoprotective activity against CCl4-induced mouse chronic liver injury model assessed as decreased AP level at 15 mg/kg, ip relative to control; assay type: functional; set-up: scale not given: the % may be the effect or the level left
Mus musculus [9] = assay: Hepatoprotective activity against CCl4-induced mouse acute liver injury model assessed as decreased sGOT level at 15 mg/kg, ip relative to control; assay type: functional; set-up: scale not given: the % may be the effect or the level left
Mus musculus [10] = assay: Hepatoprotective activity against CCl4-induced mouse acute liver injury model assessed as decreased LDH level at 15 mg/kg, ip relative to control; assay type: functional; set-up: scale not given: the % may be the effect or the level left
Mus musculus [11] = assay: Hepatoprotective activity against CCl4-induced mouse chronic liver injury model assessed as decreased sGOT level at 15 mg/kg, ip relative to control; assay type: functional; set-up: scale not given: the % may be the effect or the level left
Mus musculus [12] = assay: Hepatoprotective activity against CCl4-induced mouse acute liver injury model assessed as decreased sGPT level at 15 mg/kg, ip relative to control; assay type: functional; set-up: scale not given: the % may be the effect or the level left
Mus musculus [13] = assay: Hepatoprotective activity against CCl4-induced mouse acute liver injury model assessed as decreased AP level at 15 mg/kg, ip relative to control; assay type: functional; set-up: scale not given: the % may be the effect or the level left
Mus musculus [14] = assay: Hepatoprotective activity in mouse model of D-GaIN/LPS-induced liver injury assessed as inhibition of sALT level secretion at 100 mg/kg, po relative to control; assay type: functional
Hepatocyte [15] = assay: Hepatoprotective activity against D-GaIN-induced toxicity in mouse hepatocyte relative to control; assay type: functional, cell-based
Hepatocyte [16] = assay: Hepatoprotective activity against D-GaIN-induced toxicity in mouse hepatocytes
Mus musculus [17] = assay: Hepatoprotective activity in mouse model of D-GaIN/LPS-induced liver injury assessed as inhibition of sAST secretion at 100 mg/kg, po relative to control; assay type: functional
Rattus norvegicus [18] = assay: Hepatoprotective activity in CCl4-induced rat model assessed as elevated level of GPT at 10 mg/kg relative to control; assay type: functional
Rattus norvegicus [19] = assay: Hepatoprotective activity in CCl4-induced rat model assessed as elevated level of ALP at 10 mg/kg relative to control; assay type: functional
Rattus norvegicus [20] = assay: Hepatoprotective activity in CCl4-induced rat model assessed as elevated level of bilirubin at 10 mg/kg relative to control; assay type: functional
Rattus norvegicus [21] = assay: Hepatoprotective activity in CCl4-induced rat model assessed as elevated level of GOT at 20 mg/kg relative to control; assay type: functional
Rattus norvegicus [22] = assay: Hepatoprotective activity in CCl4-induced rat model assessed as elevated level of GOT at 10 mg/kg relative to control; assay type: functional
Rattus norvegicus [23] = assay: Hepatoprotective activity in CCl4-induced rat model assessed as elevated level of ALP at 20 mg/kg relative to control; assay type: functional
Rattus norvegicus [24] = assay: Hepatoprotective activity in CCl4-induced rat model assessed as elevated level of GPT at 20 mg/kg relative to control; assay type: functional
Rattus norvegicus [25] = assay: Hepatoprotective activity in CCl4-induced rat model assessed as elevated level of bilirubin at 20 mg/kg relative to control; assay type: functional
HepG2 [26] = assay: Hepatoprotective activity against H2O2-induced cell death in human HepG2 cells assessed as reduction in AST level at 18.65 uM preincubated for 1 hr followed by H2O2-stimulation and measured after 24 hrs; assay type: functional
HepG2 [27] = assay: Hepatoprotective activity against H2O2-induced cell death in human HepG2 cells assessed as reduction in AST level at 74.60 uM preincubated for 1 hr followed by H2O2-stimulation and measured after 24 hrs; assay type: functional; settings: dose 74.6 µM
HepG2 [28] = assay: Hepatoprotective activity against H2O2-induced cell death in human HepG2 cells assessed as reduction in ALT level at 74.60 uM preincubated for 1 hr followed by H2O2-stimulation and measured after 24 hrs; assay type: functional; settings: dose 74.6 µM
HepG2 [29] = assay: Cytoprotective activity against t-BHP induced cell death in human HepG2 cells assessed as cell survival rate at 5 uM relative to control; assay type: functional
Hepatocyte [30] = assay: Hepatoprotective activity against D-GaIN-induced toxicity in mouse hepatocytes at 30 uM relative to control; assay type: functional
Hepatocyte [31] = assay: Hepatoprotective activity against D-GaIN-induced toxicity in mouse hepatocytes at 100 uM relative to control; assay type: functional
Hepatocyte [32] = assay: Hepatoprotective activity against D-GaIN-induced toxicity in mouse hepatocytes at 3 uM relative to control; assay type: functional
Hepatocyte [33] = assay: Hepatoprotective activity against D-GaIN-induced toxicity in mouse hepatocytes at 10 uM relative to control; assay type: functional

## C[C@H]1[C@H](C)CC[C@]2(C(=O)O)CC[C@]3(C)C(=CC[C@@H]4[C@@]5(C)CC[C@H](O)C(C)(C)[C@@H]5CC[C@]43C)[C@H]12 [URSOLIC ACID]
Huh-7 [1]
  Activity: 37.5%
Huh-7 [2]
  Activity: 37.5%
Huh-7 [3]
  Activity: 2.37 mg

## C[C@H]1[C@H](C)CC[C@]2(C)CC[C@]3(C)C(=CC[C@@H]4[C@@]5(C)CC[C@H](O)C(C)(C)[C@@H]5CC[C@]43C)[C@H]12
Mus musculus [4]
  Activity: 40.22 U/ml

## COC(=O)[C@]12CC[C@@H](C)[C@H](C)[C@H]1C1=CC[C@@H]3[C@@]4(C)C[C@@H](OCc5ccccc5)C5OC(C)(C)OC[C@@]5(C)[C@@H]4CC[C@@]3(C)[C@]1(C)CC2 (stereo partly drawn)
[5]
  Activity: 33.6%

## CC1(C)CC[C@]2(C)CC[C@]3(C)C(=CC[C@@H]4[C@@]5(C)CCC(=O)C(C)(C)[C@@H]5C(O)C[C@]43C)[C@@H]2C1 (stereo partly drawn)
Mus musculus [6]
  Activity: 36.4%
Mus musculus [7]
  Activity: 24.8%
Mus musculus [8]
  Activity: 55.3%
Mus musculus [9]
  Activity: 51.3%
Mus musculus [10]
  Activity: 45%
Mus musculus [11]
  Activity: 38.8%
Mus musculus [12]
  Activity: 45.3%
Mus musculus [13]
  Activity: 40.6%

## C[C@@H]1CC[C@]2(C(=O)O[C@@H]3O[C@H](CO)[C@@H](O)[C@H](O)[C@H]3O)CC[C@]3(C)C(=CC[C@@H]4[C@@]5(C)C[C@@H](O)C(=O)C(C)(C)[C@@H]5CC[C@]43C)[C@@H]2[C@]1(C)O
Mus musculus [14]
  inhibition in vivo at 100 mg/kg: 78.4%
Hepatocyte [15]
  IC50: 46.7 µM
Hepatocyte [16]
  IC50: 46.7 µM
Mus musculus [17]
  inhibition in vivo at 100 mg/kg: 76.8%

## CC(C)[C@@H]1CC[C@@H]2C3=CC[C@@H]4[C@@]5(C)CC[C@@H](O)C(C)(C)[C@@H]5CC[C@@]4(C)[C@]3(C)CC[C@]21C(=O)O
Rattus norvegicus [18]
  Activity: 24%
Rattus norvegicus [19]
  Activity: 5%
Rattus norvegicus [20]
  Activity: 30%
Rattus norvegicus [21]
  Activity: 21%
Rattus norvegicus [22]
  Activity: 13%
Rattus norvegicus [23]
  Activity: 32%
Rattus norvegicus [24]
  Activity: 13%
Rattus norvegicus [25]
  Activity: 24%

## C=C(C)[C@@H]1C[C@H](O)C2=C(C(=O)C[C@]3(C)[C@@H]([C@H](C)CCC(=O)OC)CC[C@@]23C)[C@@]1(C)CCC(=O)O
HepG2 [26]
  Activity: 19.56 U/L
HepG2 [27]
  Activity: 10.53 U/L
HepG2 [28]
  Activity: 7.22 U/L

## CC(C(=O)O)[C@H]1CC[C@@]2(C)[C@@H]3C(=O)C=C4[C@@H](CC[C@@H](O)C4(C)C)[C@]3(C)CC[C@]12C (stereo partly drawn)
HepG2 [29]
  Activity: 55.2%

## CC1(C)CC[C@]2(C(=O)O[C@@H]3O[C@H](CO)[C@@H](O)[C@H](O)[C@H]3O)CC[C@]3(C)C(=CC[C@@H]4[C@@]5(C)C[C@@H](O)[C@H](O)C(C)(C)[C@@H]5CC[C@]43C)[C@@H]2[C@@H]1O
Hepatocyte [30]
  Activity: 25.2%
Hepatocyte [31]
  Activity: 15.6%
Hepatocyte [32]
  Activity: 11.1%
Hepatocyte [33]
  Activity: 24.5%
